Patent publication US7432051B2, “Erythropoietin and erythropoietin receptor expression in human cancer” (The Henry M. Jackson Foundation for the Advancement of …, priority 2000, dated 2008)

Legend:
U251 cells [1] = assay: Chemotherapeutic drug toxicity, cell survival by MTT assay; assay type: cell-based, human; conditions: serum-free media
Procedure: (§1) U251 cells were grown in 96-well culture dishes to approximately 85% confluence. Serum was withdrawn overnight and 10 μM Cisplatin was added for twenty-four hours. […] Control groups underwent similar serum withdrawal but no Cisplatin exposure. Where indicated rhEpo or Epoetin-alfa was added thirty minutes prior to the addition of cisplatin. Serum withdrawal studies involved assessment of cell survival forty-eight hours following change to serum-free media. […] Where indicated, Epoetin-alfa, tyrosine kinase inhibitors or PI3K inhibitors were added at the time of change to serum-free media. The Student's T-test was used to determine statistically significant differences between treatment groups.

U251 cells [2] = assay: Hypoxia-sensing response (HIF-1α immunoblot, HIF-1 gelshift, RT-PCR and Western blot for Epo/EpoR); assay type: cell-based, human; conditions: 150 μM DFX, six-hour treatment
Procedure: Human glioma cell lines (ATCC) and normal human astrocytes (Clonetics) were cultured in Eagle's MEM medium supplemented with 10% fetal bovine serum, and 1% (v/v) penicillin/streptomycin. The cells were grown to 90% confluence in 10 cm culture dishes. For hypoxia treatment, the culture dishes were sealed in modulator incubator chamber, flushed with gas containing 1% oxygen, 5% carbon dioxide, 94% nitrogen for five minutes, and incubated at 37° C. for four to six hours. For desferrioxamine (DFX) treatment, the cells were cultured with same medium containing […] DFX and incubated in cell culture incubator. Paraffin sections (5 μm) of the human GBMs were prepared and stained by immunohistochemistry methods as described previously (Acs et al. (2001) Cancer Res. 61, 3561-3565).
(§2) After the treatments to the cell culture dishes described in Example 10, the cells were washed once with 10 ml cold Dulbecco's phosphate-buffered saline (PBS), scraped into 1.5 ml of PBS on ice, and pelleted by centrifugation at 2,000 rpm for three minutes at 4° C. Cell pellets were washed once with 5 packed cell volumes of buffer A (10 mM Tris-HCl (pH 7.5), 1.5 mM magnesium chloride, 10 mM KCl), freshly supplemented with Complete, EDTA-free Protease Inhibitor Cocktail (Roche) and 2 mM dithiothreitol (DTT)), and resuspended in four packed cell volumes of buffer A. After incubation on ice for 10 min, cell suspension was homogenized with thirty strokes in a glass douncer (Wheaton) with type-b pestle. Nuclei were pelleted at 1,000 rpm for ten minutes and resuspended in four packed nuclear volumes of buffer C (20 mM Tris-HCl (pH 7.5), 0.42 M KCl, 1.5 mM magnesium chloride, 20% glycerol, freshly supplemented with Complete, EDTA-free Protease Inhibitor Cocktail (Roche) and 2 mM DTT), and rotated for thirty minutes at 4° C. After centrifugation at 1,400 rpm for thirty minutes, the nuclear extracts were aliquoted and stored at −80° C. Protein concentration was determined by the method of Bradford with a commercial kit (Bio-Rad) using bovine serum albumin as standard. HIF-1α protein was detected by immunoblot analysis. Twenty five to thirty μg of nuclear extracts were boiled for five minutes in 2× denaturing buffer, and loaded onto SDS-7% polyacrylamide gels. After transfer, membranes were blocked with 5% milk in TBST (10 mM Tris-HCl, 150 mM NaCl, 0.1% Tween, pH 7.8) for one and a half hours at room temperature and subsequently incubated with mouse monoclonal HIF-1α antibody (Transduction Labs) for two hours. The membranes were washed with TBST three times and incubated with horseradish peroxidase-conjugated secondary antibody. Then, the membranes were washed three times with TBST and analyzed by enhanced chemiluminescence (Pierce). Analysis of EpoR and phosphotyrosine immunoreactivity was performed as reported previously (Acs et al. (2001) Cancer Res. 61, 3561-3565).
Oligonucleotide probe was generated by 5′ end labeling of the sense strand with gamma-[^32P]ATP (Dupont-NEN) and T4 polynucleotide kinase (Gibco-BRL), annealing to a ten-fold excess of antisense strand, and purification by using NucTrap Probe Purification Column (Stratagene). Binding reactions were carried out in a total volume of 20 μl containing 7.0 μg of nuclear extract and 0.2 μg of calf thymus DNA in buffer Z (20 mM Tris-HCl (pH 7.5), 0.1 M KCl, 0.2 mM EDTA, 20% glycerol, freshly supplemented with 2 mM DTT, 0.4 mM PMSF and 1 mM Na3PO4). […]

U251 cells [3] = assay: Serum withdrawal cell survival; assay type: cell-based, human; conditions: inhibitor added at change to serum-free media, forty-eight hours
Procedure: as §1

BT-549 cells = assay: 3H-thymidine incorporation assay of DNA synthesis; assay type: cell-based, human
Procedure: (§3) To determine whether Epo exerts trophic effects on breast cancer cell lines, the effect of exogenously added Epo on DNA synthesis was examined in MCF-7 and BT-549 cells. DNA synthesis was measured using a ^3H-thymidine incorporation assay. Breast cancer cells plated in six well plates in one ml DMEM supplemented with 20% fetal bovine serum per well were allowed to incubate for sixteen hours. Cells were switched to one ml phenol-free DMEM at the time of treatments. recombinant human Epo (rhEpo) (10 units), or either anti-Epo or anti-EpoR antibodies ([…]) was then added directly to the medium and the cells cultured for another sixteen hours. Thymidine labeling was performed by adding one […] (NEN Life Sciences) for one hour and DNA associated counts were then determined by liquid scintillation as described (Assandri et al. (1999) J. Physiol. 516, 343-352).

MCF-7 cells [4] = assay: 3H-thymidine incorporation assay of DNA synthesis; assay type: cell-based, human
Procedure: as §3

MCF-7 cells [5] = assay: Western blot of phosphotyrosine containing proteins; assay type: cell-based, human; conditions: five minute incubation; 250 units/ml rhEpo or 10 μM Epo mimetic peptide
U251 cells [6] = assay: Western blot of EpoR associated signaling (tyrosine phosphorylation, Jak-2, STAT-5, Akt); assay type: cell-based, human
Procedure: as §2
Using the Western blotting techniques described in Example 11 above, the immunoreactive EpoR expressed in human gliomas was further tested to see if it was functional. Cultured U251 cells were stimulated with recombinant human erythropoietin. […] Tyrosine phosphorylation could also be elicited by an Epo-mimetic peptide (EMP) and by Epoetin-alfa, the clinically used form of Epo (FIG. 11B). Using phospho-specific antibodies, we also detected rhEpo stimulated Jak-2 and STAT-5 tyrosine phosphorylation as well as phosphorylation of Akt (FIG. 12C).

[7] = system: cell lines derived from a wide range of tumors including two breast cancer cell lines; conditions: in particular low doses of erythropoietin; cited from earlier work
[8] = 10 units/ml exogenous rhEpo, p<0.01
[9] = rhEpo (10 units) in one ml medium, sixteen hours, p<0.01

**Q.** Which results are given for N.N.[Cl][Pt][Cl] [Cisplatin, reference compound]?
**A.** cells killed (cell death) (U251 cells [1]; 10 μM Cisplatin, overnight / twenty-four hours): approximately 80%; survival fraction (U251 cells [1]; Cisplatin overnight): 0.2

**Q.** With CC(=O)N(O)CCCCCNC(=O)CCC(=O)N(O)CCCCCNC(=O)CCC(=O)N(O)CCCCCN [DFX, desferrioximine] as the molecule, how does the “Epo mRNA expression (RT-PCR)” value (U251 cells [2]) read?
**A.** Its value is “prominent induction”.

**Q.** And the “EpoR mRNA expression (RT-PCR)” value (U251 cells [2])?
**A.** Its value is “not induced”.

**Q.** What about the HIF-1 gelshift activity (U251 cells [2]) of the same molecule?
**A.** Its HIF-1 gelshift activity is “dramatically upregulating”.

**Q.** What about the “immunoreactive EpoR protein levels” value (U251 cells [2]) of the same molecule?
**A.** Its value is “enhanced”.

**Q.** And the “level of HIF-1α protein” value (U251 cells [2])?
**A.** Its value is “dramatically upregulating”.

**Q.** Which “effect on the protective effect of Epoetin-alfa” value (U251 cells [3]) does the source give for O=c1c(-c2ccc(O)cc2)coc2cc(O)cc(O)c12 [Genistein, reference compound] here?
**A.** Its value is “blocked”.

**Q.** Which results are given for “rhEpo: recombinant human Epo (rhEpo), R & D systems”?
**A.** enhancement of 3H-thymidine incorporation (BT-549 cells; [8]): about 25%; 3H-thymidine incorporation, effect in words (BT-549 cells; rhEpo 100 units/ml (FIG. 2)): enhanced; potentiation of DNA synthesis (BT-549 cells; [9]): approximately 20%; enhancement of 3H-thymidine incorporation (MCF-7 cells [4]; [8]): about 25%; 3H-thymidine incorporation, effect in words (MCF-7 cells [4]; rhEpo 100 units/ml (FIG. 2)): enhanced; potentiation of DNA synthesis (MCF-7 cells [4]; [9]): approximately 20%; levels of phosphotyrosine containing proteins versus basal (MCF-7 cells [5]): markedly enhanced; Jak-2 tyrosine phosphorylation (U251 cells [6]; phospho-specific antibodies): stimulated; STAT-5 tyrosine phosphorylation (U251 cells [6]; phospho-specific antibodies): stimulated; phosphorylation of the PI3K substrate Akt (U251 cells [6]; phospho-specific antibodies): stimulated; tyrosine phosphorylation in several proteins (U251 cells [6]; serum free media, rhEpo 10 U/ml single dose, EMP and Epoetin-alfa thirty minute treatments): prominent, rapid, and long lasting activation; duration of tyrosine phosphorylation (U251 cells [6]; single dose 10 U/ml rhEpo): more than two hours; onset of tyrosine phosphorylation (U251 cells [6]; single dose 10 U/ml rhEpo): within one minute; stimulation of cancer cell proliferation [7]: no significant stimulation
